Common to all, as to assay: NCI-60 cell line screen, 48 h
Assay [1] has as its system 786-0 renal.
Assay [2] has as its system CAKI-1 renal.
Assay [3] has as its system COLO 205 colon.
Assay [4] deals with HCT-15 colon.
Assay [5] relates to HOP-92 NSCLC.
In assay [6] the test system is MCF7 breast.
Assay [7] has as its system NCI/ADR-RES ovarian.
Assay [8] deals with OVCAR-5 ovarian.
In assay [9] the test system is SK-MEL-2 melanoma.
Assay [10] concerns A498 renal.

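1) Cells in 96-well plates. 2) Compound, 48 h, 5 concentrations. 3) Linear interpolation between surrounding doses. 4) Unreached endpoint = highest concentration. GI50 = concentration required for 50% inhibition of growth. TGI denotes the concentration required for complete inhibition of growth.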

With `O=C1CCCCCCCC/C=C/CCC(c2ccco2)O1` (stereo not drawn), the GI50 in assay [1] is 45.9 µM; in [2], over 100 µM; in assay [3], 68 µM; in [4], over 100 µM; in assay [5], 50.5 µM; in assay [6] it was 15.8 µM. The GI50 in assay [7], in assay [8] and in assay [9] was over 100 µM each time. Besides, the TGI in assay [1], in assay [2], in assay [3], in assay [4], in assay [5] and in [6] was over 100 µM throughout. Further, the TGI in assay [7], in assay [8] and in assay [9] was over 100 µM each time.

In the case of `CC1=NC2(CCCCC2)N(Cl)C(=O)C1SC#N` (stereo not drawn), the TGI in [1] is 31.9 µM; in [10], over 100 µM; in [3], over 100 µM; in assay [4], 66.6 µM; in [6], 48.9 µM; in assay [7] it was 56.2 µM. The TGI in [8] amounted to 38.6 µM; in assay [9], 48.2 µM.

In the case of `O=C1C(Cl)=C(Oc2ccc([N+](=O)[O-])cc2)C(=O)c2c(O)ccc(O)c21`, the TGI in [1] was over 100 µM; in assay [10], over 100 µM; in assay [3], 42.3 µM; in [4] it was over 67.6 µM; in assay [5] it was 56.6 µM; in [6], over 100 µM. Besides, the TGI in assay [7] and in assay [8] was over 100 µM each time.

Consider `CN1c2ccccc2C(=O)NC12CCN(Cc1ccccc1)CC2`, for which the TGI in assay [1] is over 100 µM; in assay [10], over 100 µM; in [3] it was over 100 µM; in assay [4], over 100 µM; in assay [5], 98.5 µM; in [6], over 100 µM. The TGI in [7] and in assay [8] was over 100 µM each time.

Consider `COC(=O)COc1ccc(/C=C2\N=C(c3ccccc3)N(c3cc(C(F)(F)F)ccc3Cl)C2=O)cc1`, for which the GI50 is over 100 µM in assay [1]; over 100 µM in [2]; 54.4 µM in [3]; 94.6 µM in [4]; 75.9 µM in [5]; 59.8 µM in assay [6]. The values for the GI50 in assay [7], in assay [8] and in [9] were 52.6 µM, over 100 µM and 83.5 µM, respectively. In addition, the TGI in assay [1], in assay [2], in assay [3], in assay [4], in assay [5] and in [6] was over 100 µM throughout. The TGI in assay [7], in assay [8] and in assay [9] was over 100 µM each time.

`CC(=O)Nc1nc(SCc2ccccc2)c2ncn(C(C)=O)c2n1`: the GI50 in assay [1] is 72.5 µM; in assay [10], 30.9 µM; in assay [2] it was 28 µM; in assay [3], over 100 µM; in assay [4] it was 93 µM; in [6] it was 91.8 µM. Further, the GI50 is 99.3 µM in assay [7] and over 100 µM in assay [8]. Besides, the TGI in [1], in [10], in assay [2], in [3], in assay [4] and in assay [6] was over 100 µM each time. For the same compound, the TGI in [7] and in [8] was over 100 µM in each case.

As for `CCCCCNC(=O)[C@@H]1CCCN2C(=O)CC[C@H](NC(=O)[C@H](Cc3ccc(OP(=O)(O)O)cc3)NC(C)=O)C(=O)N12`, the GI50 in [1], in assay [10], in assay [2], in assay [3], in assay [4] and in assay [6] was over 25 µM each time. Further, the GI50 in assay [7], in [8] and in [9] was over 25 µM each time. In addition, the TGI in assay [1], in assay [10], in assay [2], in assay [3], in assay [4] and in assay [6] was over 25 µM throughout. Also, the TGI in assay [7], in assay [8] and in [9] was over 25 µM throughout.

Take `N#CC1=C(N)N=C(N2CCCCC2)C(C#N)C12Nc1ccccc1S2` (stereo not drawn): the GI50 in [1] was 26.5 µM; in assay [3], 29.3 µM; in assay [4], 22 µM; in assay [5] it was 26.9 µM; in [6], 44.9 µM; in assay [7], 20 µM. Further, the GI50 in assay [9] was 36.4 µM. Also, the TGI in [1] is 79.2 µM; in [3], 82.6 µM; in [4] it was over 100 µM; in assay [5], over 100 µM; in assay [6] it was over 100 µM; in assay [7] it was 68.6 µM. The compound also had a TGI in assay [9] of 79 µM.

As for `COC(=O)NC/C=C\c1nc(CC/C=C\C(=O)OC2CC3CC(=O)O[C@H](/C=C/CC(C)C)C[C@H]4CCC(C)C(C[C@H](OC)CC(C2)O3)O4)co1` (stereo partly drawn), the GI50 is under 0.01 µM in [1]; 13.6 µM in assay [10]; under 0.01 µM in assay [2]; 1.1 µM in [3]; under 0.01 µM in assay [6]; 59 µM in assay [7]. The results for the GI50 in assay [8] and in assay [9] were 0.877 µM and 20.2 µM, respectively. Besides, the TGI in [1] was over 100 µM; in assay [10] it was 57.1 µM; in assay [2], 41.1 µM; in [3] it was over 100 µM; in [6], 10.5 µM; in assay [7] it was over 100 µM. The TGI in assay [8] and in [9] was over 100 µM in each case.

For `S=c1nc(Oc2ccc(Cl)c(Cl)c2)[nH]c(=S)[nH]1`, the TGI was over 100 µM in assay [1]; 77.6 µM in [10]; over 100 µM in assay [2]; over 60.4 µM in assay [3]; over 100 µM in [4]; 60.9 µM in [5]. The TGI in [6], in [7] and in assay [8] was over 100 µM throughout.

The values are drawn from PubChem BioAssay (NCI).
